In one assay the target is Stromelysin-1 (Homo sapiens, UniProt P08254).
For assay [1], the target named is 72 kDa type IV collagenase (Homo sapiens, UniProt P08253).
Description: Inhibition of gelatinase A (Matrix metalloprotease-2)

From ChEMBL document CHEMBL1130318, “Inhibition of stromelysin-1 (MMP-3) by P1'-biphenylylethyl carboxyalkyl dipeptides” (J Med Chem, 1997) come the findings set out here.

pKi: −log10 of the molar value.

72 kDa type IV collagenase, sequence (P08253 whole entry): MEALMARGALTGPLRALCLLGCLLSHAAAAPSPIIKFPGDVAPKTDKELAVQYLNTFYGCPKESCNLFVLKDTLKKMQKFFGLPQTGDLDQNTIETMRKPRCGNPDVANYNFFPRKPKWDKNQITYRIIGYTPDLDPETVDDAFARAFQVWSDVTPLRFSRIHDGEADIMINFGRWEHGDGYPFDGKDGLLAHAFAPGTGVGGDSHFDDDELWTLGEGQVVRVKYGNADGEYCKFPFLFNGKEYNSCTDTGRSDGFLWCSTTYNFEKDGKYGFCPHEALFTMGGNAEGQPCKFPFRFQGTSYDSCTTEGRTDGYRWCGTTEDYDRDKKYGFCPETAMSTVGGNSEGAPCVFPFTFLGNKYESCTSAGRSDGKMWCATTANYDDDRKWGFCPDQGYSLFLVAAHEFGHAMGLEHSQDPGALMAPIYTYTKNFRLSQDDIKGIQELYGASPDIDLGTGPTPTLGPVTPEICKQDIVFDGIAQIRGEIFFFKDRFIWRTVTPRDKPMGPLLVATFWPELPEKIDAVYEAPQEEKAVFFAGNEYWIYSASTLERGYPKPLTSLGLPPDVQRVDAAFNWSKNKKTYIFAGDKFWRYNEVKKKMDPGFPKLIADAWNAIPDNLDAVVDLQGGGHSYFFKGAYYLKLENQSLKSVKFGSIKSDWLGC
Stromelysin-1, sequence (P08254 whole entry): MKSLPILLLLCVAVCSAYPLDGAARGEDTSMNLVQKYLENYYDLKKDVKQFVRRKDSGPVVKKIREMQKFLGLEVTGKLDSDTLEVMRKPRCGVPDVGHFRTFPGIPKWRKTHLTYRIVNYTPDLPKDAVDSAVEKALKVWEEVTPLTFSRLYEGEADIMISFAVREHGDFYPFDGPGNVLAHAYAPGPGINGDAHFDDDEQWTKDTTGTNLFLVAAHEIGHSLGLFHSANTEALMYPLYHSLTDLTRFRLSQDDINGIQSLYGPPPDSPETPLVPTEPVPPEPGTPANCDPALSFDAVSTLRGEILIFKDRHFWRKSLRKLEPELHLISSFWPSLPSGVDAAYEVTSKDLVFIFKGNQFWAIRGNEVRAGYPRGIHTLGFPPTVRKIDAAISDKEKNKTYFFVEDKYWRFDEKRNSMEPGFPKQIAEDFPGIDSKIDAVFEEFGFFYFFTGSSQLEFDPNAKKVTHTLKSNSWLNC
Description for Stromelysin-1: Inhibition of human stromelysin-1 (Matrix metalloprotease-3)

For `CCCC[C@@H](C[C@@H](CCc1ccc(-c2ccc(Cl)cc2Cl)cc1)C(=O)N[C@H](C(=O)NC)C(C)(C)C)C(=O)O`, the pKi was 7.92 at Stromelysin-1 and 7.00 in assay [1].
For `CC(C)C[C@H](NC(=O)[C@H](CCc1ccc(-c2ccc(F)cc2)cc1)C[C@H](C)C(=O)O)C(=O)Nc1ccccc1`, the negative-log Ki (pKi) at Stromelysin-1 was 7.42.
Still for that read-out and setting: as for `CCCC[C@@H](C[C@@H](CCc1ccc(-c2ccccc2S(N)(=O)=O)cc1)C(=O)N[C@H](C(=O)NC)C(C)(C)C)C(=O)O`, the figure is 5.03.
Consider `CCCC[C@@H](C[C@@H](CCc1ccccc1)C(=O)N[C@H](C(=O)NC)C(C)(C)C)C(=O)O`, for which the pKi on Stromelysin-1 is 5.42; in assay [1] it was 5.82.
Taken in the same sequence, the figures for `CCCC[C@@H](C[C@@H](CCc1cccc(-c2ccsc2)c1)C(=O)N[C@H](C(=O)NC)C(C)(C)C)C(=O)O` were 7.82 and 7.68.
Taken in the same sequence, the figures for `CCCC[C@@H](C[C@@H](CCc1ccc(-c2cc3ccccc3[nH]2)cc1)C(=O)N[C@H](C(=O)NC)C(C)(C)C)C(=O)O` were 7.92 and 7.31.
Taken in the same sequence, the figures for `CCCC[C@@H](C[C@@H](CCc1ccc(-c2c(C)cccc2C)cc1)C(=O)N[C@H](C(=O)NC)C(C)(C)C)C(=O)O` were 5.92 and 5.89.
On to `CCCC[C@@H](C[C@@H](CCc1ccc(-c2ccccc2S(=O)(=O)NC(C)(C)C)cc1)C(=O)N[C@H](C(=O)NC)C(C)(C)C)C(=O)O`, for which the pKi was 8.00 at Stromelysin-1 and 7.77 in assay [1].
`CCCC[C@@H](C[C@@H](CCc1ccc(-c2ccc(F)cc2)cc1)C(=O)N[C@H](C(=O)Nc1ccncc1)C(C)(C)C)C(=O)O`: the pKi at Stromelysin-1 is 8.70; in assay [1] it was 7.60.
On to `CCCC[C@@H](C[C@@H](CCc1ccc(-c2ccc(-c3ncc[nH]3)cc2)cc1)C(=O)N[C@H](C(=O)NC)C(C)(C)C)C(=O)O`, for which the pKi is 7.60 at Stromelysin-1 and 7.03 in assay [1].
`CCCC[C@@H](C[C@@H](CCc1ccc(-c2ccc3ccccc3c2)cc1)C(=O)N[C@H](C(=O)NC)C(C)(C)C)C(=O)O` had a pKi on Stromelysin-1 of 6.92.
Take `CCCC[C@@H](C[C@@H](CCc1ccc(C2CCCCCC2)cc1)C(=O)N[C@H](C(=O)NC)C(C)(C)C)C(=O)O`: the pKi on Stromelysin-1 is 7.02; in assay [1] it was 5.72.
Taken in the same sequence, the figures for `CCCC[C@@H](C[C@@H](CCc1ccc(-c2ccc(C=O)cc2)cc1)C(=O)N[C@H](C(=O)NC)C(C)(C)C)C(=O)O` were 7.82 and 7.80.
With `CCCC[C@@H](C[C@@H](CCc1ccc(-c2ccc(SC)cc2)cc1)C(=O)N[C@H](C(=O)NC)C(C)(C)C)C(=O)O`, the pKi at Stromelysin-1 was 8.30; in assay [1] it was 7.89.
`CC(C)C[C@H](NC(=O)[C@H](CCc1ccc(-c2ccccc2)cc1)C[C@H](C)C(=O)O)C(=O)Nc1ccccc1`: the pKi on Stromelysin-1 was 7.09.
For the molecule `CCCC[C@@H](C[C@@H](CCc1ccc(C2CCCO2)cc1)C(=O)N[C@H](C(=O)NC)C(C)(C)C)C(=O)O` (some centres not stated), the pKi at Stromelysin-1 was 5.85; in assay [1], 6.09.
Taken in the same sequence, the figures for `CCCC[C@@H](C[C@@H](CCc1ccc(Cc2ccccc2)cc1)C(=O)N[C@H](C(=O)Nc1ccccc1)C(C)(C)C)C(=O)O` were 5.85 and 7.80.
Consider `CCCC[C@@H](C[C@@H](CCc1ccc(-c2ccc(C(=O)O)cc2)cc1)C(=O)N[C@H](C(=O)NC)C(C)(C)C)C(=O)O`, for which the pKi was 6.16 at Stromelysin-1 and 6.24 in assay [1].
Taken in the same sequence, the figures for `CCCC[C@@H](C[C@@H](CCc1cccc(-c2ccccc2)c1)C(=O)N[C@H](C(=O)NC)C(C)(C)C)C(=O)O` were 5.82 and 5.62.
Taken in the same sequence, the figures for `CCCC[C@@H](C[C@@H](CCc1ccc(/C=C/c2ccccc2)cc1)C(=O)N[C@H](C(=O)NC)C(C)(C)C)C(=O)O` were 7.19 and 6.12.
On to `CCCC[C@@H](C[C@@H](CCc1ccc(CCC)cc1)C(=O)N[C@H](C(=O)NC)C(C)(C)C)C(=O)O`, for which the pKi is 6.85 on Stromelysin-1 and 7.33 in assay [1].
Taken in the same sequence, the figures for `CCCC[C@@H](C[C@@H](CCc1ccc(-c2ccc(C#N)cc2)cc1)C(=O)N[C@H](C(=O)NC)C(C)(C)C)C(=O)O` were 8.05 and 7.85.
Consider `CCCC[C@@H](C[C@@H](CCc1ccc(CCc2ccccc2)cc1)C(=O)N[C@H](C(=O)NC)C(C)(C)C)C(=O)O`, for which the pKi is 7.31 on Stromelysin-1 and 6.42 in assay [1].
With `CCCC[C@@H](C[C@@H](CCc1ccc(-c2ccc(Br)cc2)cc1)C(=O)N[C@H](C(=O)NC)C(C)(C)C)C(=O)O`, the pKi at Stromelysin-1 was 7.96; in assay [1] it was 7.77.
Regarding `CCCC[C@@H](C[C@@H](CCc1ccc(-c2ccc(S(C)(=O)=O)cc2)cc1)C(=O)N[C@H](C(=O)NC)C(C)(C)C)C(=O)O`, the pKi on Stromelysin-1 is 7.68; in assay [1], 7.72.
Taken in the same sequence, the figures for `CCCC[C@@H](C[C@@H](CCc1ccc(-c2ccc(F)c(Cl)c2)cc1)C(=O)N[C@H](C(=O)NC)C(C)(C)C)C(=O)O` were 7.72 and 7.10.
Taken in the same sequence, the figures for `CCCC[C@@H](C[C@@H](CCc1ccc(-c2ccc(C(N)=O)cc2)cc1)C(=O)N[C@H](C(=O)NC)C(C)(C)C)C(=O)O` were 7.62 and 7.42.
Taken in the same sequence, the figures for `CCCC[C@@H](C[C@@H](CCc1ccc(-c2ccc(C(=O)N(C)C)cc2)cc1)C(=O)N[C@H](C(=O)NC)C(C)(C)C)C(=O)O` were 7.40 and 7.30.
Turning to `CCCC[C@@H](C[C@@H](CCc1ccc(-c2ccc(C(=O)OC)cc2)cc1)C(=O)N[C@H](C(=O)NC)C(C)(C)C)C(=O)O`, the pKi is 7.51 at Stromelysin-1 and 7.49 in assay [1].
On to `CCCC[C@@H](C[C@@H](CCc1ccc(-c2cccc3ccccc23)cc1)C(=O)N[C@H](C(=O)NC)C(C)(C)C)C(=O)O`, for which the pKi at Stromelysin-1 was 5.70; in assay [1], 5.16.
In the case of `CCCC[C@@H](C[C@@H](CCc1ccc(-c2cc(Cl)cc(Cl)c2)cc1)C(=O)N[C@H](C(=O)NC)C(C)(C)C)C(=O)O`, the figures for the pKi (on Stromelysin-1; in assay [1]) were 5.82 and 5.80, respectively.
Taken in the same sequence, the figures for `CCCC[C@@H](C[C@@H](CCc1ccc(-c2ccc(C(=O)NC)cc2)cc1)C(=O)N[C@H](C(=O)NC)C(C)(C)C)C(=O)O` were 7.31 and 7.47.
Taken in the same sequence, the figures for `CCCC[C@@H](C[C@@H](CCc1ccc(-c2ccc(Cl)cc2)cc1)C(=O)N[C@H](C(=O)NC)C(C)(C)C)C(=O)O` were 7.89 and 7.60.
As to `CCCC[C@@H](C[C@@H](CCc1ccc(-c2ccc(-c3nnn[nH]3)cc2)cc1)C(=O)N[C@H](C(=O)NC)C(C)(C)C)C(=O)O`, the figures for the pKi (on Stromelysin-1; in assay [1]) were 6.46 and 5.74, respectively.
Taken in the same sequence, the figures for `CCCC[C@@H](C[C@@H](CCc1ccc(CCC)cc1)C(=O)N[C@H](C(=O)Nc1ccncc1)C(C)(C)C)C(=O)O` were 7.96 and 7.66.
As to `CCCC[C@@H](C[C@@H](CCc1ccc(-c2ccc(OC)cc2)cc1)C(=O)N[C@H](C(=O)NC)C(C)(C)C)C(=O)O`, the figures for the pKi (at Stromelysin-1; in assay [1]) were 7.89 and 7.68, respectively.
Taken in the same sequence, the figures for `CCCC[C@@H](C[C@@H](CCc1ccc(-c2cccc(N)c2)cc1)C(=O)N[C@H](C(=O)Nc1ccccc1)C(C)(C)C)C(=O)O` were 7.57 and 6.55.
Taken in the same sequence, the figures for `CCCC[C@@H](C[C@@H](CCc1ccc(-c2cccc(C(F)(F)F)c2)cc1)C(=O)N[C@H](C(=O)NC)C(C)(C)C)C(=O)O` were 5.96 and 5.44.
